According to patent publication US4518581A, “Imparting low- or anti-cariogenic property to orally-usable products” (Kabushiki Kaisha Hayashibara Seibutsu Kagaku Kenkyujo, priority 1981, dated 1985):

Legend:
[1] = target: T1, water-insoluble glucan producing enzyme (Streptococcus downei, UniProt P27470); test: Effect of saccharides on formation of water-insoluble glucan from sucrose (Experiment 3); type: biochemical, Streptococcus mutans 6715 strain; conditions: 1 ml 4 w/v % sucrose plus 1 ml 4 w/v % saccharide, 0.02 units enzyme, 37° C., 16 hours; for A: amounts of water-insoluble glucan formed: sucrose control 300
T1 construct: endogenous in cells; host or cells: Streptococcus mutans 6715 strain (today S. sobrinus), culture supernatant, ammonium sulfate precipitate, dialyzed
Experimental: After completion of the cultivation, the culture was separated into cell precipitant and supernatant. Thereafter, to the supernatant was added with ammonium sulfate to give 60% saturation, and the resultant precipitant was dialyzed against 0.1M phosphate buffer (pH 7.2) to obtain an aqueous solution containing the enzyme.
The titers of the enzyme were assayed as follows: A mixture solution, consisting of 1 ml of 0.2M aqueous sucrose solution, 1 ml of water, 1 ml of 0.1M phosphate buffer containing 0.05 w/v % NaN3, and 0.5 ml of the enzyme solution (below 0.05 units), is incubated at 37° C. for 9 hours, followed by centrifugation of the reaction mixture. The resultant precipitant is mixed with 4 ml of 0.5N sodium hydroxide solution, and then incubated at this temperature for an additional one hour to dissolve the precipitant. The amount of water-insoluble glucan formed during the enzymatic reaction is then measured. One unit of the enzyme is defined as the amount of enzyme that transfers 1 μmole glucose from sucrose to the water-insoluble glucan in one minute.
Effects of some saccharides on the formation of water-insoluble glucan were tested: Water-insoluble glucan formation and inhibition thereof were determined according to the enzyme assay method as described in EXPERIMENT 1, except that the mixture solution contained sucrose, or sucrose and each saccharide as listed in TABLE I. The experiment was carried out as follows: A mixture solution, consisting of 1 ml of 4 w/v % aqueous sucrose solution, 1 ml of 4 w/v % aqueous solution of each saccharide as listed in TABLE I, 1.5 ml of 0.1M phosphate buffer containing 0.05 w/v % NaN3, and 0.5 ml of the enzyme solution (0.02 units), was incubated at 37° C. for 16 hours, and the water-insoluble glucan formation in the reaction mixture was determined according to the enzyme assy method.
In a control experiment, 1 ml of the above described saccharide solution was replaced with the same amount of water.
The inhibition degree was calculated with following equation:
Inhibition degree (%)=100-A/B×100
where A and B are respective amounts of the water-insoluble glucan formed (μg/ml) when the mixture solution contained sucrose or sucrose and each of the saccharides.

[2] = system: Streptococcus mutans 6715 strain; test: Organic acid formation from saccharides by Streptococcus mutans cells, pH-measurement (Experiment 4); type: cell-based; conditions: 37° C., 30 minutes; for pH-Level of the reaction mixture (organic acid formation): cell suspension, Stephan's buffer (pH 7.0), saccharide solution; for organic acid formation from the saccharide: Streptococcus mutans 6715 cells
Experimental: Organic acid formation from some saccharides by Streptococcus mutans was tested: Streptococcus mutans 6715 strain was cultivaed similarly as in EXPERIMENT 1, and the cells, obtained by centrifuging the culture, were washed with 0.9 w/v % sodium chloride solution, followed by additional centrifugation. Two ml of a mixture solution, consisting of 0.2 ml of the cell suspension, prepared from about 100 ml of the culture, 1.5 ml of Stephan's buffer, and 0.3 ml aqueous solution of each saccharide as listed in TABLE II, was incubated at 37° C. for 30 minutes, followed by pH-measurement of the reaction mixture. The Stephan's buffer was prepared by the method as reported by R. M. Stephan et al., Journal of Dental Research, Vol.26, pp.15-41 (1947): One ml of Solution I, prepared by dissolving 17.89 g Na2 HPO4. 12H2 O, 7.92 g KOH and 6.81 g KH2 PO4 in water to give a final volume of 100 ml, was placed in a 100-ml volumetric flask, and mixed with about 90 ml of water. To the flask was added 1 ml of Solution II, prepared by dissolving 4.54 g KH2 PO4, 0.32 g MgSO4.7H2 O, 0.57 g CaSO4.2H2 O and 10 ml of 3.5% hydrochloric acid solution in water to give a final volume of 100 ml. This mixture was diluted with additional water to obtain 100 ml of Stephan's buffer (pH 7.0).
The results are given in TABLE II, wherein the organic acid formation from the saccharides can be estimated by the pH-values.

T1 sequence (P27470 39-1592): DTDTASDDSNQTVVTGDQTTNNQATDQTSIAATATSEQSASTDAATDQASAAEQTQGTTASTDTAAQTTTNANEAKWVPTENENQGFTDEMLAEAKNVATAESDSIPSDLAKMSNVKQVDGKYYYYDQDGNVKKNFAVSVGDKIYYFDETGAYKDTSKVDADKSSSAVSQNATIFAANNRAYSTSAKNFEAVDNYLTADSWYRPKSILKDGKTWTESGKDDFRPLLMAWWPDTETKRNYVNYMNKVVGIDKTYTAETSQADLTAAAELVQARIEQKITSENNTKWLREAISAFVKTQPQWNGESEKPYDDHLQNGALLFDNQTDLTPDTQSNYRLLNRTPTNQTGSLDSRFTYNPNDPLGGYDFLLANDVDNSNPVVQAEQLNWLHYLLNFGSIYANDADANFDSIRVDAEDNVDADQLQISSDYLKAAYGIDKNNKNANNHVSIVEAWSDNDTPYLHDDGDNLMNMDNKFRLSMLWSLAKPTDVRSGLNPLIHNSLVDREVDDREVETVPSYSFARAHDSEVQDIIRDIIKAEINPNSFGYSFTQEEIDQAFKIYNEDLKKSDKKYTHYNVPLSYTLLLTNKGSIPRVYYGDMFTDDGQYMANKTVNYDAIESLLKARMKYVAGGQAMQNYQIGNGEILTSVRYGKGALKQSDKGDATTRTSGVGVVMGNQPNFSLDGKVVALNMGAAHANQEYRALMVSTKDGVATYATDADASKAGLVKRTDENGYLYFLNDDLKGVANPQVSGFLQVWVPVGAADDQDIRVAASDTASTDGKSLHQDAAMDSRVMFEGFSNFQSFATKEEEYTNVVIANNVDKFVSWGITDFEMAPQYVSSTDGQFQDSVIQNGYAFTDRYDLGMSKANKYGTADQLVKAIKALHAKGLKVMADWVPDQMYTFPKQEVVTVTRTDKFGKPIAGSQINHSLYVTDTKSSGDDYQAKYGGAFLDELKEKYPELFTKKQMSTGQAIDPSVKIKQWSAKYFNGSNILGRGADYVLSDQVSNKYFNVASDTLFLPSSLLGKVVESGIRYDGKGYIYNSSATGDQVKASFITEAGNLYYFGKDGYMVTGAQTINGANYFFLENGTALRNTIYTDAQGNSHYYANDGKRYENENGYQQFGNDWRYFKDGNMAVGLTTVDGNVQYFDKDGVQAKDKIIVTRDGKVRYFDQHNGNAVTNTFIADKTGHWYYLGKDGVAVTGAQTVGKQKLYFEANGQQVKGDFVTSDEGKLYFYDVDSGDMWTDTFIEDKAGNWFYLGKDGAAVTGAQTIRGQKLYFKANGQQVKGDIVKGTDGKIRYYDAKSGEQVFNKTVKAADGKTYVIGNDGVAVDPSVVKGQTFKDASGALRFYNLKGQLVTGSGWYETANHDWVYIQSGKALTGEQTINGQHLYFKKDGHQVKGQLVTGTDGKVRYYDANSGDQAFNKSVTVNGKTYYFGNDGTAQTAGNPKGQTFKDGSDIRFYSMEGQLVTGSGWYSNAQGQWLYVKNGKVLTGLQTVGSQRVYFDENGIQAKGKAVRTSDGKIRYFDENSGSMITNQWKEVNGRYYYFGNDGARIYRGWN

SMILES	B: inhibition degree on water-insoluble glucan formation [1]	A: amounts of water-insoluble glucan formed [1]	pH-Level of the reaction mixture (organic acid formation) [2]	organic acid formation from the saccharide [2]
OC[C@@H](O)[C@@H](O)CO [Erythlitol]	3%	290 µg/mL	7.0	–
OC[C@H]1OC(O)[C@H](O)[C@@H](O)[C@@H]1O (stereo partly drawn) [D-Glucose]	–	–	4.0	–
OC[C@@H](O)[C@@H](O)[C@H](O)[C@H](O)CO [Mannitol]	5%	286 µg/mL	7.0	–
OC[C@H](O)[C@@H](O)[C@H](O)[C@H](O)CO[C@H]1O[C@H](CO[C@H]2O[C@H](CO[C@H]3O[C@H](CO[C@H]4O[C@H](CO)[C@@H](O)[C@H](O)[C@H]4O)[C@@H](O)[C@H](O)[C@H]3O)[C@@H](O)[C@H](O)[C@H]2O)[C@@H](O)[C@H](O)[C@H]1O [Isomaltopentaitol, 6^3 -O-α-isomaltosyl isomaltotriitol]	–	66 µg/mL	7.0	no organic acid formation
OC[C@@H](O)[C@@H](O[C@H]1O[C@H](CO[C@H]2O[C@H](CO)[C@@H](O)[C@H](O)[C@H]2O)[C@@H](O)[C@H](O)[C@H]1O)[C@H](O)[C@@H](O)CO [Pannitol, 4-O-α-isomaltosyl glucitol]	–	70 µg/mL	7.0	no organic acid formation
OC[C@H](O)[C@@H](O)[C@H](O)[C@H](O)CO[C@H]1O[C@H](CO[C@H]2O[C@H](CO)[C@@H](O)[C@H](O)[C@H]2O)[C@@H](O)[C@H](O)[C@H]1O [Isomaltotriitol, 6-O-α-isomaltosyl glucitol]	–	60 µg/mL	7.0	no organic acid formation
OC[C@H]1O[C@H](OC[C@H]2OC(O)[C@H](O)[C@@H](O)[C@@H]2O)[C@H](O)[C@@H](O)[C@@H]1O (stereo partly drawn) [Isomaltose]	–	72 µg/mL	7.0	–
OC[C@@H](O)[C@@H](O[C@H]1O[C@H](CO)[C@@H](O)[C@H](O)[C@H]1O)[C@H](O)[C@@H](O)CO [Maltitol]	–	–	7.0	–
OC[C@H](O)[C@@H](O)[C@H](O)[C@H](O)CO[C@H]1O[C@H](CO[C@H]2O[C@H](CO[C@H]3O[C@H](CO)[C@@H](O)[C@H](O)[C@H]3O)[C@@H](O)[C@H](O)[C@H]2O)[C@@H](O)[C@H](O)[C@H]1O [Isomaltotetraitol, 6^2 -O-α-isomaltosyl isomaltitol]	–	45 µg/mL	7.0	no organic acid formation
OC[C@@H](O)[C@@H](O[C@@H]1O[C@H](CO)[C@H](O)[C@H](O)[C@H]1O)[C@H](O)[C@@H](O)CO [Lactitol]	–	–	7.0	–
OC[C@H]1OC(O)[C@H](O)[C@@H](O)[C@H]1O (stereo partly drawn) [D-Galactose]	–	–	7.0	–
OC[C@H]1O[C@H](O[C@H]2[C@H](O)[C@@H](O)[C@H](O)O[C@@H]2CO)[C@H](O)[C@@H](O)[C@@H]1O [Maltose]	–	–	4.0	–
OC[C@H]1O[C@@H](O[C@H]2[C@H](O)[C@@H](O)C(O)O[C@@H]2CO)[C@H](O)[C@@H](O)[C@@H]1O (stereo partly drawn) [Cellobiose]	–	–	7.0	–
OC[C@H]1OC(O)[C@@H](O)[C@@H](O)[C@@H]1O (stereo partly drawn) [D-Mannose]	–	–	5.5	–
OC[C@H]1O[C@@](CO)(O[C@H]2O[C@H](CO)[C@@H](O)[C@H](O)[C@H]2O)[C@@H](O)[C@@H]1O [Sucrose]	–	–	4.0	–
OC[C@@H](O)[C@@H](O[C@H]1O[C@H](CO)[C@@H](O[C@H]2O[C@H](CO)[C@@H](O[C@H]3O[C@H](CO)[C@@H](O)[C@H](O)[C@H]3O)[C@H](O)[C@H]2O)[C@H](O)[C@H]1O)[C@H](O)[C@@H](O)CO [Maltotetraitol]	21%	236 µg/mL	–	–
